Results reported in PubChem BioAssay (NCI).
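48-hour exposure; five concentrations; linearly interpolated endpoints. GI50 = concentration required for 50% inhibition of growth. TGI: concentration producing complete growth inhibition.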

Key:
Assay in all cases: inhibition of tumour cell growth, NCI panel, 48 h
786-0 renal = tested on: 786-0 renal
EKVX NSCLC = tested on: EKVX NSCLC
HOP-92 NSCLC = tested on: HOP-92 NSCLC
IGROV1 ovarian = tested on: IGROV1 ovarian
OVCAR-3 ovarian = tested on: OVCAR-3 ovarian
OVCAR-5 ovarian = tested on: OVCAR-5 ovarian
OVCAR-8 ovarian = tested on: OVCAR-8 ovarian
SNB-75 CNS = tested on: SNB-75 CNS
SW-620 colon = tested on: SW-620 colon
UO-31 renal = tested on: UO-31 renal
HCC-2998 colon = tested on: HCC-2998 colon
T-47D breast = tested on: T-47D breast

O=C1/C(=C/c2ccc(O)cc2)NC(=S)N1CN1CCCCC1
TGI (786-0 renal): > 100 µM
TGI (EKVX NSCLC): > 100 µM
TGI (HOP-92 NSCLC): > 100 µM
TGI (IGROV1 ovarian): > 100 µM
TGI (OVCAR-3 ovarian): > 100 µM
TGI (OVCAR-5 ovarian): > 100 µM
TGI (OVCAR-8 ovarian): > 100 µM
TGI (SNB-75 CNS): > 100 µM
TGI (SW-620 colon): > 100 µM
TGI (UO-31 renal): > 100 µM

CSCCC(NC(=O)C(Cc1ccccc1)NC(=O)CNC(=O)CNC(=O)C(N)Cc1ccc(O)cc1)C(=O)O (stereo not drawn)
TGI (EKVX NSCLC): > 100 µM
TGI (HCC-2998 colon): > 100 µM
TGI (HOP-92 NSCLC): > 100 µM
TGI (IGROV1 ovarian): > 100 µM
TGI (OVCAR-3 ovarian): > 100 µM
TGI (OVCAR-5 ovarian): > 100 µM
TGI (OVCAR-8 ovarian): > 100 µM
TGI (SNB-75 CNS): > 100 µM
TGI (SW-620 colon): > 100 µM
TGI (UO-31 renal): > 100 µM

CC1=NN(c2nc(N)nc(CS(C)(=O)=O)n2)C(C)(C)C1
TGI (786-0 renal): > 100 µM
TGI (EKVX NSCLC): > 100 µM
TGI (HCC-2998 colon): > 100 µM
TGI (HOP-92 NSCLC): > 100 µM
TGI (IGROV1 ovarian): > 100 µM
TGI (OVCAR-8 ovarian): > 100 µM
TGI (SNB-75 CNS): > 100 µM
TGI (SW-620 colon): > 100 µM
TGI (T-47D breast): > 100 µM
TGI (UO-31 renal): > 100 µM

O=C(N/N=C(/COc1cccc(Cl)c1)N=Cc1ccncc1)c1ccncc1
TGI (786-0 renal): > 100 µM
TGI (EKVX NSCLC): > 100 µM
TGI (HCC-2998 colon): > 100 µM
TGI (HOP-92 NSCLC): > 100 µM
TGI (IGROV1 ovarian): > 100 µM
TGI (OVCAR-3 ovarian): > 100 µM
TGI (OVCAR-5 ovarian): > 100 µM
TGI (OVCAR-8 ovarian): > 100 µM
TGI (SW-620 colon): > 100 µM
TGI (T-47D breast): > 100 µM

O=C(N=Nc1ccc([N+](=O)[O-])cc1)NNc1ccc([N+](=O)[O-])cc1
TGI (786-0 renal): 27 µM
TGI (HCC-2998 colon): 27.3 µM
TGI (IGROV1 ovarian): 26.8 µM
TGI (OVCAR-3 ovarian): 59.2 µM
TGI (OVCAR-5 ovarian): 48 µM
TGI (OVCAR-8 ovarian): 41.9 µM
TGI (SNB-75 CNS): 79.9 µM
TGI (SW-620 colon): 45.4 µM
TGI (T-47D breast): 25.2 µM
TGI (UO-31 renal): 32.6 µM

CCOC(=O)/C(C(=S)NC)=C(/N)N1CCCC1
TGI (786-0 renal): > 100 µM
TGI (EKVX NSCLC): > 100 µM
TGI (HCC-2998 colon): > 100 µM
TGI (HOP-92 NSCLC): > 100 µM
TGI (IGROV1 ovarian): > 100 µM
TGI (OVCAR-3 ovarian): > 100 µM
TGI (OVCAR-5 ovarian): > 100 µM
TGI (OVCAR-8 ovarian): > 100 µM
TGI (SW-620 colon): > 100 µM
TGI (T-47D breast): > 100 µM
TGI (UO-31 renal): > 100 µM

CSC1=N/C(=C\c2cccs2)C(=O)N1CN1CCOCC1
TGI (786-0 renal): > 100 µM
TGI (EKVX NSCLC): > 100 µM
TGI (HOP-92 NSCLC): 94.3 µM
TGI (IGROV1 ovarian): > 100 µM
TGI (OVCAR-3 ovarian): > 100 µM
TGI (OVCAR-5 ovarian): > 100 µM
TGI (OVCAR-8 ovarian): > 100 µM
TGI (SNB-75 CNS): > 100 µM
TGI (SW-620 colon): > 100 µM
TGI (UO-31 renal): > 100 µM

ON=C1CCCCC(=NO)CCCC1
TGI (786-0 renal): > 100 µM
TGI (HCC-2998 colon): > 100 µM
TGI (HOP-92 NSCLC): > 100 µM
TGI (OVCAR-8 ovarian): > 100 µM
TGI (SNB-75 CNS): > 100 µM
TGI (SW-620 colon): > 100 µM
TGI (T-47D breast): > 100 µM
TGI (UO-31 renal): > 100 µM

COCCO
TGI (EKVX NSCLC): > 100 µM
TGI (HCC-2998 colon): > 100 µM
TGI (HOP-92 NSCLC): > 100 µM
TGI (IGROV1 ovarian): > 100 µM
TGI (OVCAR-3 ovarian): > 100 µM
TGI (OVCAR-5 ovarian): > 100 µM
TGI (OVCAR-8 ovarian): > 100 µM
TGI (SNB-75 CNS): > 100 µM
TGI (SW-620 colon): > 100 µM
TGI (UO-31 renal): > 100 µM

C=C1CC(OC(C)=O)/C=C(/C)CCC(C(C)(C)O)CC1O (stereo not drawn)
TGI (786-0 renal): > 100 µM
TGI (EKVX NSCLC): > 100 µM
TGI (HCC-2998 colon): > 100 µM
TGI (HOP-92 NSCLC): > 100 µM
TGI (IGROV1 ovarian): > 100 µM
TGI (OVCAR-3 ovarian): > 100 µM
TGI (OVCAR-5 ovarian): > 100 µM
TGI (OVCAR-8 ovarian): > 100 µM
TGI (SW-620 colon): > 100 µM
TGI (T-47D breast): > 100 µM
TGI (UO-31 renal): > 100 µM

CCN(CC)CCNc1ccc([N+](=O)[O-])c2nc3ccccc3c(N)c12
TGI (786-0 renal): 2.04 µM
TGI (EKVX NSCLC): 2.51 µM
TGI (HOP-92 NSCLC): 5.84 µM
TGI (IGROV1 ovarian): > 10 µM
TGI (OVCAR-3 ovarian): 5.13 µM
TGI (OVCAR-5 ovarian): 5.26 µM
TGI (OVCAR-8 ovarian): > 10 µM
TGI (SNB-75 CNS): 2.39 µM
TGI (SW-620 colon): 1.91 µM
TGI (T-47D breast): > 10 µM
TGI (UO-31 renal): 5.94 µM

CN(C)c1nc(N(C)C)nc(N(C)CN(C)c2ccccc2)n1
TGI (HCC-2998 colon): > 100 µM
TGI (IGROV1 ovarian): > 100 µM
TGI (OVCAR-3 ovarian): > 100 µM
TGI (OVCAR-8 ovarian): > 100 µM
TGI (SNB-75 CNS): > 100 µM
TGI (UO-31 renal): > 100 µM

CCCS(=O)(=O)O
TGI (EKVX NSCLC): > 100 µM
TGI (HOP-92 NSCLC): > 100 µM
TGI (IGROV1 ovarian): > 100 µM
TGI (OVCAR-3 ovarian): > 100 µM
TGI (OVCAR-5 ovarian): > 100 µM
TGI (OVCAR-8 ovarian): > 100 µM
TGI (SNB-75 CNS): > 100 µM
TGI (SW-620 colon): > 100 µM
TGI (T-47D breast): > 100 µM
TGI (UO-31 renal): > 100 µM

Cc1ccc2nc3c(C(=O)NCCN(C)C)cccc3cc2c1
TGI (EKVX NSCLC): 2.78 µM
TGI (HCC-2998 colon): 14.8 µM
TGI (HOP-92 NSCLC): 5.08 µM
TGI (IGROV1 ovarian): 6.5 µM
TGI (OVCAR-3 ovarian): 5.83 µM
TGI (OVCAR-5 ovarian): 5.64 µM
TGI (OVCAR-8 ovarian): 4.87 µM
TGI (SNB-75 CNS): 8.26 µM
TGI (SW-620 colon): 5.45 µM
TGI (UO-31 renal): 2.96 µM

Cc1nn2c(N)cc(=O)nc2nc1/C=C/c1ccc(N(C)C)cc1
TGI (786-0 renal): > 100 µM
TGI (EKVX NSCLC): > 100 µM
TGI (HCC-2998 colon): 23.3 µM
TGI (HOP-92 NSCLC): > 43.6 µM
TGI (IGROV1 ovarian): > 100 µM
TGI (OVCAR-5 ovarian): > 100 µM
TGI (OVCAR-8 ovarian): > 100 µM
TGI (SW-620 colon): > 100 µM
TGI (T-47D breast): > 100 µM
TGI (UO-31 renal): > 100 µM

O=C1C(NS(=O)(=O)c2ccccc2)=C(n2cnc3ccccc32)C(=O)c2ccccc21
TGI (786-0 renal): > 100 µM
TGI (EKVX NSCLC): > 100 µM
TGI (HCC-2998 colon): > 100 µM
TGI (HOP-92 NSCLC): > 100 µM
TGI (IGROV1 ovarian): > 100 µM
TGI (OVCAR-3 ovarian): > 100 µM
TGI (OVCAR-5 ovarian): > 100 µM
TGI (OVCAR-8 ovarian): > 100 µM
TGI (SNB-75 CNS): 85 µM
TGI (SW-620 colon): > 100 µM
TGI (UO-31 renal): > 100 µM

C=CCCCCOC1C=CC(OC(C)=O)C(COC(C)=O)O1 (stereo not drawn)
TGI (786-0 renal): > 100 µM
TGI (EKVX NSCLC): > 100 µM
TGI (HCC-2998 colon): > 100 µM
TGI (HOP-92 NSCLC): > 100 µM
TGI (IGROV1 ovarian): > 100 µM
TGI (OVCAR-3 ovarian): > 100 µM
TGI (OVCAR-5 ovarian): > 100 µM
TGI (OVCAR-8 ovarian): > 100 µM
TGI (SW-620 colon): > 100 µM
TGI (T-47D breast): > 100 µM
TGI (UO-31 renal): > 100 µM

CSc1ccc2c(c1)c(CCN)c(C)n2Cc1ccc(Cl)c(Cl)c1
GI50 (HOP-92 NSCLC): 1.4 µM
TGI (HOP-92 NSCLC): 2.78 µM
GI50 (OVCAR-3 ovarian): 1.7 µM
TGI (OVCAR-3 ovarian): 3.15 µM
GI50 (OVCAR-5 ovarian): 1.51 µM
TGI (OVCAR-5 ovarian): 3.13 µM
GI50 (SNB-75 CNS): 1.32 µM
TGI (SNB-75 CNS): 2.6 µM
GI50 (UO-31 renal): 1.59 µM
TGI (UO-31 renal): 3.01 µM

N#CS/C(C(Cl)=C(Cl)Cl)=C(/Cl)[N+](=O)[O-]
TGI (EKVX NSCLC): 6.76 µM
TGI (HCC-2998 colon): 34.6 µM
TGI (IGROV1 ovarian): 5.63 µM
TGI (OVCAR-3 ovarian): 3.1 µM
TGI (OVCAR-8 ovarian): 3.49 µM
TGI (SNB-75 CNS): 52 µM
TGI (SW-620 colon): 3.5 µM
TGI (T-47D breast): 4.86 µM
TGI (UO-31 renal): 3.1 µM

N#CC12COC3(CCCCC3C1(C#N)C#N)OC2=N (stereo not drawn)
TGI (786-0 renal): > 100 µM
TGI (EKVX NSCLC): 48.8 µM
TGI (HOP-92 NSCLC): 18.5 µM
TGI (IGROV1 ovarian): 27.7 µM
TGI (OVCAR-3 ovarian): 23.1 µM
TGI (OVCAR-5 ovarian): 30.4 µM
TGI (SNB-75 CNS): 35.2 µM
TGI (SW-620 colon): > 100 µM
TGI (T-47D breast): 26.7 µM
TGI (UO-31 renal): 30.6 µM

NCCCNCCSSCc1ccccc1CSSCCNCCCN
TGI (EKVX NSCLC): > 100 µM
TGI (HCC-2998 colon): > 100 µM
TGI (HOP-92 NSCLC): 87.9 µM
TGI (IGROV1 ovarian): > 100 µM
TGI (OVCAR-3 ovarian): > 100 µM
TGI (OVCAR-5 ovarian): > 100 µM
TGI (OVCAR-8 ovarian): > 100 µM
TGI (SNB-75 CNS): 70 µM
TGI (SW-620 colon): > 100 µM
TGI (UO-31 renal): > 100 µM
